Results: BigSolDB 2.1

COc1cc(/C=C/C(=O)O)cc(OC)c1O
solubility (mole fraction)
Conditions	in DMSO	in ethanol	in ethyl acetate	in ethylene glycol	in isopropanol	in n-butanol	in propylene glycol	in sec-butanol	in transcutol	in water
298.15 K	0.148	0.012	0.00532	0.0059	0.00213	0.00355	0.00452	0.00409	0.0298	6.22e-05
303.15 K	0.15	0.013	0.00627	0.00663	0.00222	0.00429	0.0053	0.00486	0.0324	8.11e-05
308.15 K	0.153	0.0141	0.00764	0.00748	0.00234	0.00529	0.00607	0.00559	0.0353	0.000113
313.15 K	0.156	0.0152	0.00935	0.00843	0.00245	0.00631	0.00708	0.00663	0.0383	0.000146
318.15 K	0.159	0.0164	0.0109	0.00934	0.00257	0.00729	0.00811	0.00761	0.0412	0.000188

Conditions	solubility (mole fraction)
in PEG-400, 298.15 K	0.0558
in PEG-400, 303.15 K	0.0616
in PEG-400, 308.15 K	0.0681
in PEG-400, 313.15 K	0.0748
in PEG-400, 318.15 K	0.0834
